IC50 and IC90 data for 71 compounds are collected here from PubChem BioAssay AID449762 (Southern Research Specialized Biocontainment Screening …, 2010).

For the assay, the system named is M. tuberculosis H37Rv growth inhibition, 7H9 media. Nature of the assay: M. tuberculosis growth inhibition, HTS (AID 449762).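 For all read-outs here: bacterial growth assessed after seven days of incubation.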 Conditions: for IC90: measured here: IC90 growth inhibition.

Molecules are shown by their SMILES. Results filed as inconclusive are left out.

Regarding `CSC(=S)N/N=C/c1ccccc1`, the concentration for half-maximal inhibition (IC50) (usually the point on the concentration scale where inhibition reaches its midpoint) is 10.1 µM and the IC90 – broadly, the concentration at which the effect reaches the 90% level – was 12.8 µM.
The matching figures for `CC(C)CNC(=S)NC(=O)c1csc([N+](=O)[O-])c1`: 6.74 µM and 15.1 µM.
The matching figures for `C#CCOC(=O)/C(=C/C=C/c1ccccc1)NC(=O)c1ccccc1`: 3.82 µM and 43.3 µM.
The matching figures for `N#Cc1ccc(OCC(O)CN2CCN(c3ncc(C(F)(F)F)cc3Cl)CC2)cc1` (configuration not stated): 15.2 µM and 24 µM.
On to `COC(=O)c1ccc(-n2cnc3ccccc32)nc1`, for which the IC50 is 13.9 µM and the IC90 came out at 45.1 µM.
Turning to `O=[N+]([O-])c1ccc(-n2cnc3ccccc32)c([N+](=O)[O-])c1`, the IC50 was 1.61 µM and the IC90 amounted to 5.96 µM.
For `COc1ccc(-n2c(-c3ccc(Cl)cc3)c[n+]3c2CCc2ccccc2-3)cc1`, the IC50 was 16.4 µM and the IC90 turned out to be 24.2 µM.
Taken in the same sequence, the figures for `O=[N+]([O-])c1cnc(Nc2ccc(Cl)cn2)c([N+](=O)[O-])c1` were 45.8 µM and more than 100 µM.
Regarding `c1ccc(-c2nnc(-c3ccccn3)nn2)nc1`, the IC50 is 3.61 µM and the IC90 is 6.27 µM.
Taken in the same sequence, the figures for `CCOC(=O)CSc1ccc(C(=O)Nc2ccc(OC)cc2)cn1` were less than 0.2 µM and more than 100 µM.
For the compound `O=C(OCc1csc(Nc2ccccc2)n1)c1ccc(Cl)cc1`, the IC50 was 17.1 µM and the IC90 is 45.7 µM.
Turning to `CC1CN(c2ccc([N+](=O)[O-])c(NCCOc3ccc(Cl)cc3)c2)CC(C)N1` (configuration not stated), the IC50 is 9.19 µM and the IC90 stood at 12.8 µM.
As to `CC1(O)CC(c2ccc(Cl)cc2)=NN1C(=O)c1ccc([N+](=O)[O-])cc1` (configuration not stated), the concentration for half-maximal inhibition (IC50) was 17.5 µM and the IC90 was more than 100 µM.
Turning to `CSCCCNC(=S)N1CCN(c2ccc(C(C)=O)cc2)CC1`, the IC50 is 24.8 µM and the 90% effect concentration (IC90) was found to be 44.1 µM.
As for `CN(Cc1ccc(Cl)s1)C(=O)CCl`, the IC50 was 0.66 µM and the IC90 worked out at 0.91 µM.
Consider `COCCCn1c(SCc2cccc(OC)c2)nc2cc(OC)c(OC)cc2c1=N`, for which the IC50 is 37 µM and the IC90 is 49 µM.
For `Cc1cc([N+](=O)[O-])c2ccccc2[n+]1[O-]`, the IC50 was 5.76 µM and the IC90 amounted to 9.62 µM.
Taken in the same sequence, the figures for `Cc1nc(N2CCC(C)CC2)c2oc3ccccc3c2n1` were 24 µM and 45.4 µM.
Taken in the same sequence, the figures for `O=C(CSC1=NC(=O)C(c2ccccc2)C(=O)N1)Nc1ccccc1Cl` (configuration not stated) were 1.86 µM and 6.58 µM.
`Cc1ccc(C)c(NC(CC(=O)c2ccccc2)C(=O)OCC(=O)c2cccs2)c1` (configuration not stated): the IC50 was 5.16 µM and the IC90 came to 7.68 µM.
`O=C(C[n+]1ccc(C(=O)N/N=C/c2ccc(O)cc2)cc1)c1ccccc1`: the IC50 was 4.47 µM and the 90% effect concentration (IC90) was more than 100 µM.
The matching figures for `COc1c[nH]n(C2CCCCC2)c(=O)c1=O`: 11.8 µM and 18.1 µM.
As for `CCCCCCC#Cc1ccc2c(c1)COc1c3ccccc3nn1-2`, the IC50 was 93.8 µM and the IC90 is more than 100 µM.
As for `Cc1ccc(NC(=O)COc2ccccc2CNC(C)(C)CC(C)(C)C)cc1`, the IC50 was 22.6 µM and the IC90 stood at 29.8 µM.
Consider `Oc1ccc(-[n+]2c(-c3ccccc3)cc(-c3ccccc3)cc2-c2ccccc2)cc1`, for which the IC50 is 11.7 µM and the IC90 came out at 18.8 µM.
The matching figures for `COc1cc(C(=O)/C=C/c2cccnc2)c([N+](=O)[O-])cc1OC`: 5.52 µM and 8.56 µM.
The matching figures for `Cc1ccc(-n2c(C)cc(/C=N/NC(N)=S)c2C)cc1`: 12.7 µM and 24.6 µM.
In the case of `CCOCCN1CCN(c2c(CC)c(C)nc3cc(-c4cc(OC)cc(OC)c4)nn23)CC1`, the IC50 is 25.5 µM and the IC90 worked out at 38.9 µM.
The matching figures for `COc1ccc(C2=CC(c3c(C)nn(-c4ccccc4)c3Cl)n3nnnc3N2)cc1OC` (configuration not stated): 40.8 µM and 78.9 µM.
Taken in the same sequence, the figures for `COC(=O)C1=C(C)N(Cc2ccccc2)C(=NCc2cccc(Cl)c2)N[C@H]1c1ccccc1` were 16.5 µM and 21 µM.
The matching figures for `CNC(CC(=O)c1ccc([N+](=O)[O-])cc1)C(Cl)(Cl)Cl` (configuration not stated): 2.26 µM and 5.81 µM.
On to `CCCCn1c(SCc2ncc(-c3ccccc3)o2)nc2cc(S(N)(=O)=O)ccc21`, for which the IC50 is 3.3 µM and the IC90 is 5.84 µM.
In the case of `CCCCCC(=O)NNC(=S)NC(=O)c1ccc([N+](=O)[O-])cc1`, the IC50 is 1.35 µM and the IC90 came out at 4.43 µM.
Consider `COc1ccc2cc1Oc1ccc(cc1)C[C@H]1c3c(cc(OC)c4c3Oc3c(ccc5c3[C@H](C2)N(C)CC5)O4)CCN1C`, for which the IC50 is 4.9 µM and the IC90 worked out at 6.44 µM.
Taken in the same sequence, the figures for `COC(=O)CN1C(c2ccc(Cl)cc2)=Nc2ccc(Cl)cc2C1c1ccccc1` (configuration not stated) were 11.8 µM and 13.7 µM.
Taken in the same sequence, the figures for `Cc1c(C(=O)Oc2cccc3ccccc23)cnn1-c1ccccc1` were 23.7 µM and 26.9 µM.
For `c1ccc(CN2CCN(CCCNc3ccc4nnc(-c5ccccc5)n4n3)CC2)cc1`, the IC50 was 19.4 µM and the IC90 turned out to be 24.7 µM.
For `CCCn1nc(C(=O)NNC(=O)c2ccc(C)c(C)c2)c2ccccc2c1=O`, the IC50 is 11.2 µM and the IC90 was 15.9 µM.
With `CCCCOc1ccc(C(=O)N/N=C/c2ccc(OCCN3CCCCC3)c(OC)c2)cc1`, the IC50 was 28.8 µM and the IC90 came to 44.6 µM.
The matching figures for `N#CC(C#N)=c1ccc2c(c1)N1C3=C(CCCC3)CC3CCCCC31N=2` (configuration not stated): 11.5 µM and 13.1 µM.
Consider `CCN1CCN(Cc2ccc(NC(=O)c3ccc(C)c(/C=C/c4cnc(Nc5cc(N6CCNCC6)nc(C)n5)cn4)c3)cc2C(F)(F)F)CC1`, for which the IC50 was 35.1 µM and the IC90 worked out at 57.9 µM.
For the compound `Cc1nc(-c2nc(-c3c(C(=O)NNC(=O)c4ccc(Cl)cc4)noc3C)cs2)cs1`, the IC50 is 7.57 µM and the IC90 is 18.2 µM.
The matching figures for `O=C(OCc1ccccc1)c1cccc(-c2nnn(Cc3ccccc3)n2)c1`: 67.7 µM and more than 100 µM.
`NC(=O)c1cccc(-c2cc(Nc3ccc(OC(F)(F)F)cc3)ncn2)c1`: the half-inhibitory concentration (IC50) was 8.46 µM and the IC90 came to 18.4 µM.
Regarding `Cc1ccc(-n2cccc2C(=S)N=P(N(C)C)(N(C)C)N(C)C)cc1`, the IC50 was 18.4 µM and the IC90 turned out to be 25.5 µM.
Turning to `CC1(C)c2[nH]c3ccccc3c2C[C@@H]2C(=O)N(Cc3ccccc3F)C(=O)N21`, the IC50 was 47.1 µM and the IC90 is more than 100 µM.
The matching figures for `N#CC1=C(c2ccccc2)/C(=C/c2ccccc2)OC1=O`: 10.2 µM and 20.1 µM.
The matching figures for `CCCC(=O)OCCNc1cc(SCCC(=O)OC)c2nonc2c1[N+](=O)[O-]`: 1.49 µM and 5.7 µM.
Consider `COc1cnc(-c2ccccn2)nc1Oc1ccc(Cl)c2ccccc12`, for which the concentration for half-maximal inhibition (IC50) was less than 0.2 µM and the IC90 turned out to be 2.86 µM.
With `O=C(COc1cccc(Oc2ccccc2)c1)Nc1ncccn1`, the IC50 is 37.7 µM and the IC90 was more than 100 µM.
On to `COc1ccccc1NC(=O)C(C)OC(=O)/C=C/c1ccc2ccccc2n1` (configuration not stated), for which the IC50 was 3.82 µM and the 90% effect concentration (IC90) worked out at 11.4 µM.
The matching figures for `Cc1ccn2nc(S(=O)(=O)Nc3c(F)cccc3F)nc2n1`: 6.95 µM and 9.3 µM.
Taken in the same sequence, the figures for `COc1cc(C)c(/C=C/C(C)=C/C=C/C(C)=C/C(=O)O)c(C)c1C` were 1.56 µM and 6.76 µM.
Taken in the same sequence, the figures for `CC(O)CNc1nc2ccccc2n1-c1ncnc2sc3c(c12)CCC3` (configuration not stated) were 27.6 µM and 36.6 µM.
With `O=C(Cc1ccc(Nc2nc3ccc(Br)cc3[nH]2)cc1)NCCc1cccs1`, the IC50 is 23.5 µM and the IC90 is 31.2 µM.
The matching figures for `COc1ccc2[nH]c3c(C)c4ccncc4c(C)c3c2c1`: 0.89 µM and 2.68 µM.
Consider `CN(CCCCCCCCCCN(C)C(=O)Oc1cccc([N+](C)(C)C)c1)C(=O)Oc1cccc([N+](C)(C)C)c1`, for which the IC50 was 1.49 µM and the IC90 was 4.04 µM.
The matching figures for `Cc1cc(=O)oc2c(C)c(OCC(=O)N3CCN(C(=O)C4COc5ccccc5O4)CC3)ccc12` (configuration not stated): 61.5 µM and 86.1 µM.
For `Cc1c(OCc2ccccc2)c(=O)ccn1Cc1ccc(Cl)cc1`, the IC50 was 39.4 µM and the IC90 amounted to 60.1 µM.
The matching figures for `C/C(=N\Nc1ccc(Cl)c(Cl)c1)c1ccc(-n2ccnc2)cc1`: 65.8 µM and 86.4 µM.
Taken in the same sequence, the figures for `COc1c(C)cc(C(=O)C2CCCN(Cc3ccccn3)C2)cc1C` (configuration not stated) were 5.8 µM and more than 100 µM.
As to `CN(C)c1ccc(O)c2c1CC1CC3[C@@H](N(C)C)C(=O)C(C(N)=O)C(=O)[C@]3(O)C(=O)C1C2=O` (some centres not stated), the IC50 is 1.27 µM and the IC90 is 3.62 µM.
Taken in the same sequence, the figures for `CCCCCc1ccc(-c2cn(Cc3cccc(OC)c3)nn2)cc1` were 20.7 µM and 50 µM.
Turning to `CCN(CC)c1nc(NN)nc(Nc2ccc(C)c(Cl)c2)n1`, the IC50 was 2.85 µM and the 90% effect concentration (IC90) was 6.27 µM.
`FC(F)(F)c1cc(CO[C@@H]2CCCN[C@@H]2c2ccccc2)cc(C(F)(F)F)c1`: the IC50 is 24.5 µM and the concentration for an effect of 90% (IC90) stood at 28.8 µM.
The matching figures for `CN(C(=S)NC(=O)c1ccc(Cl)cc1)C1CCCCC1`: 3.1 µM and 13.7 µM.
Turning to `NC1=NC[C@H](Cc2ccc(O)cc2)N1CCc1cccc2ccccc12`, the IC50 was 21.6 µM and the IC90 is 24.1 µM.
On to `O=C(NC1CCCCC1)C(c1cccs1)N(CCCN1CCOCC1)C(=O)c1ccc(-c2ccccc2)[nH]1` (configuration not stated), for which the IC50 was 40.2 µM and the IC90 is 55.5 µM.
Taken in the same sequence, the figures for `CC(C)(C)c1nn(-c2ccccc2)c2[nH]c(=O)c(CNCc3ccc4c(c3)OCO4)cc12` were 20.4 µM and 27.3 µM.
Taken in the same sequence, the figures for `COc1ccc(-c2nnc(NC(=O)c3ccc([N+](=O)[O-])o3)o2)c(OC)c1` were 1.05 µM and 3.04 µM.
For the compound `Cc1nc(-c2ccccc2)sc1C(=O)/C=C/c1ccccc1`, the IC50 was 10.3 µM and the IC90 was 14.5 µM.
